Results published in patent US11958865B1, “Leucine-rich repeat kinase 2 (LRRK2) inhibitors” (H. Lundbeck A/S, priority 2022, dated 2024).
Where two headings read alike, the source gives them in different places.

How the values were obtained:
[1] = Hepatocyte intrinsic clearance assay; format: in vitro ADME, Human; settings: pooled donor, cryopreserved hepatocytes, pH 7.4; human hepatocytes 1×10^6/mL; 0.05 μM; 2 h at 37° C.
Protocol: Test compounds (final concentration 0.05 μM, 0.05% organic) were incubated for 2 h at 37° C., with shaking, in supplemented Leibovitz L-15 media (pH 7.4) containing commercially sourced, pooled donor, cryopreserved hepatocytes (final concentration 1×10^6 hepatocytes/mL). The CLint reactions (350 μL) were initiated by addition of test compound. Aliquots (25 μL) were taken at 1, 5, 10, 15, 30, 60, 90 and 120 minutes and then protein crashed with ice-cold acetonitrile containing internal standard (150 μL) then centrifuged (1960 g for 20 minutes at 4° C.). Supernatant was diluted (1:4) with deionized water then analyzed by liquid chromatography (LC)-tandem mass spectrometry (MS/MS).

[2] = Hepatic microsomal intrinsic clearance assay; format: in vitro ADME; settings: for CLint scaled at 1 μM: pooled liver microsomes, pH 7.4, liver microsomes 0.5 mg/mL, NADPH, 1 hour at 37° C., LLOQ 0.36 L/h/kg
Protocol: Compounds (final concentration 1 μM, 1% organic) of the invention were incubated for 1 hour at 37° C., with shaking, in phosphate buffer (pH 7.4) containing commercially sourced pooled liver microsomes (final concentration 0.5 mg/mL). […] At designated time points (0, 5, 10, 20, 30 and 60 minutes) ice-cold acetonitrile containing internal standard (300 μL) was added to an incubation well to stop the reaction then mixed and centrifuged (3220 g for 20 minutes at 4° C.). Supernatant was diluted (1:4) with deionized water then analyzed by LC-MS/MS.

[3] = Rat brain disposition after oral gavage; format: in vivo, male Sprague-Dawley rats; settings: male, Sprague-Dawley, oral 5 mg/kg, 1 h, mean ± stdev; for Kp at 1 h / Kp uu at 1 h: n=3
Protocol: Brain disposition was evaluated in male Sprague-Dawley rats (n=3, standard body weight). Briefly, test compound was formulated as a simple suspension (0.5% HPMC in water) then administered by oral gavage (10 mg/kg, 10 mL/kg or 5 mg/kg, 10 mL/kg). At the designated time point (0.5 or 1 h post dose) rats were sacrificed and terminal blood and brain samples taken. Isolated plasma and brain homogenates were extracted by standard protein precipitation in acetonitrile, containing internal standard. Diluted extracts were analyzed by liquid-chromatography coupled with tandem mass spectrometry detection (LC-MS/MS) using a bioanalytical method. Concentrations of test compound in plasma and brain were quantified against matrix matched calibration standards. The total plasma and brain concentration time data are presented in Table 4 alongside the calculated brain Kp (total brain concentration:total plasma concentration ratio).
The total brain-to-plasma partition coefficient (brain Kp) is given by the ratio of the total brain concentration and total plasma concentration of the compound according to the equation below: […]
Based on the measured rat fuplasma and fubrain values and the brain Kp the unbound brain-to-plasma partition coefficient (brain Kp,uu for each compound was calculated. The Kp,uu parameter describes the extent of brain penetration for each compound, i.e. the parameter gives a direct quantitative description of how the blood-brain barrier (BBB) handles the compounds regarding passive transport and active influx/efflux. The brain Kp,uu is given by the equation below: […]

[4] = molecular target: T1, LRRK2 WT (Homo sapiens (Human), UniProt Q5S007); assay: LRRK2 wild-type LanthaScreen TR-FRET kinase activity assay; format: biochemical; settings: 1 nM kinase, 1.3 mM ATP, n≥2 tests
T1 sequence (Q5S007 970-2527): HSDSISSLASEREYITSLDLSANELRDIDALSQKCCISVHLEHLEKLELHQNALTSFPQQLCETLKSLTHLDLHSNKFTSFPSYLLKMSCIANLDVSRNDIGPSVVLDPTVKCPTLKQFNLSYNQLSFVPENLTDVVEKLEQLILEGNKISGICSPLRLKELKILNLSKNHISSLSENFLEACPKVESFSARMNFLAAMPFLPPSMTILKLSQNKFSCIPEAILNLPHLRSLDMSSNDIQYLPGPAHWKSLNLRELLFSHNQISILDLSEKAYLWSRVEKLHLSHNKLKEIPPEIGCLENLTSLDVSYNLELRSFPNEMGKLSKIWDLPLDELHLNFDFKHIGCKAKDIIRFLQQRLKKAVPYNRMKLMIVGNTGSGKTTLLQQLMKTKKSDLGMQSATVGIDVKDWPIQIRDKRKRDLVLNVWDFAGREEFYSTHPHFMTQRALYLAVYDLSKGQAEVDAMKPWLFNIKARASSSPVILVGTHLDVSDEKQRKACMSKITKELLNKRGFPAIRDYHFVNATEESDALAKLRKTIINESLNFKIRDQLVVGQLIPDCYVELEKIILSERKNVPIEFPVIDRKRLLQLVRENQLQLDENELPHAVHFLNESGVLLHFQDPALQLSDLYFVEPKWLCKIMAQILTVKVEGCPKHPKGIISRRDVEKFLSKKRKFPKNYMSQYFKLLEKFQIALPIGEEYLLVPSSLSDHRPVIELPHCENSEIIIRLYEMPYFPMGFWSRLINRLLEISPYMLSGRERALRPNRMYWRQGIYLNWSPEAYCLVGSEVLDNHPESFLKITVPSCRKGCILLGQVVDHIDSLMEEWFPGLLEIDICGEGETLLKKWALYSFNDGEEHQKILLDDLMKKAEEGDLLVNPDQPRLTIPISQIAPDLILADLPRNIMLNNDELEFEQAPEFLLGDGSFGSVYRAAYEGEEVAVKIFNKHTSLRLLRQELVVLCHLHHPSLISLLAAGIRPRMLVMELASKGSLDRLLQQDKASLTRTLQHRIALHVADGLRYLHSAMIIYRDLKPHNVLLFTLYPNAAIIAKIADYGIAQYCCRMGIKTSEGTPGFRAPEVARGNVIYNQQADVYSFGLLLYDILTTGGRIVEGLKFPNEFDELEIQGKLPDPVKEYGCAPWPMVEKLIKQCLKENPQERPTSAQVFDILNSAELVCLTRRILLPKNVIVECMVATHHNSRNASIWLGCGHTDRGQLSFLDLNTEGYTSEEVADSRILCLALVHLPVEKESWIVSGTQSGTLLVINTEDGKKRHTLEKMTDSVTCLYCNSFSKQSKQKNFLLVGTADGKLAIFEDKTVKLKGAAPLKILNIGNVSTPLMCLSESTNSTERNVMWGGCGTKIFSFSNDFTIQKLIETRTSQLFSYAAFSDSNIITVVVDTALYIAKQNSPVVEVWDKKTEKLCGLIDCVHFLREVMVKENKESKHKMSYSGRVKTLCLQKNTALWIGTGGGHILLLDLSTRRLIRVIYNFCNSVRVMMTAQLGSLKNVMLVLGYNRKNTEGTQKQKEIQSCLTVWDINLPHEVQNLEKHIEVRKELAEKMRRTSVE
Protocol: (§1) LRRK2 kinase activity was measured using a LanthaScreen kinase activity assay available from Invitrogen (Life Technologies Corporation). […] The phosphorylated peptide is recognized by a terbium-labelled phospho-specific anti-LRRKtide antibody (pLRRKtide antibody), obtainable from Life Technologies Corporation) and, subsequently, the phosphorylated LRRKtide can be quantified by the extent of TR-FRET between the terbium donor and fluorescein acceptor.
(§2) As discussed above, this mutation increases the kinase activity relative to the wild type. The kinase reactions were performed in a 20 μL volume in 384-well plates. The kinase reaction buffer consisted of 50 mM Tris pH 8.5, 0.01% BRIJ-35, 10 mM MgCl2, 1 mM EGTA, and 2 mM DTT.
(§3) The mixture was further incubated for 30 minutes at RT. TR-FRET was measured by excitation of the terbium-donor with 340 nm light and subsequent (delay time […]) measurement of terbium and fluorescein emission at 495 nm and 520 nm, respectively, over a time window of […]. The measurement was repeated 30 times for fluorescein and 30 times for terbium emission with a […] between repeats. TR-FRET measurements were performed on a Biotek Synergy plate. The TR-FRET signal was calculated as the emission-ratio at 520 nm over 495 nm.
(§4) Test compound potency (IC50) was estimated by nonlinear regression using the sigmoidal dose-response (variable slope) using Xlfit 4 (IDBS, Guildford, Surrey, UK, model 205). Were the IC50 could not be determined the % inhibition at the highest tested concentration is given by equation 1. Equation (1): y=(A+((B−A)/(1+((C/x)^D)))) (1)
(§5) where y is the normalized TR-TRET ratio measurement for a given concentration of test compound, x is the concentration of test compound, A is the estimated efficacy (% inhibition) at infinite compound dilution, and B is the maximal efficacy (% inhibition). C is the IC50 value and D is the Hill slope coefficient. IC50 estimates were obtained from independent experiment and the logarithmic average was calculated.

[5] = molecular target: T1, LRRK2 WT; assay: LRRK2 wild-type ADP-Glo kinase assay; format: biochemical; settings: 0.5 nM kinase; 1.0 mM ATP; IC50=Ki,app+[E]/2; n≥2 tests; read-out: LRRK2 WT ADPGlo IC50
Protocol: LRRK2 kinase activity was measured using an ADP-Glo kinase assay from Promega Corporation. The assay is a homogeneous luminescence-based assay that measures ADP formed from a kinase reaction. The ADP is converted into ATP, which is used to generate light in a luciferase reaction. The luminescence generated correlates with kinase activity.
The LRRK2 kinase was obtained from Invitrogen (Life Technologies Corporation) and comprises residue 970 to 2527 of the full length human wild-type LRRK2 kinase. The kinase reactions were performed in a 10 μL volume in 384-well plates. The kinase reaction buffer consisted of 50 mM Tris pH 8.5, 0.01% BRIJ-35, 10 mM MgCl2, 1 mM EGTA, and 2 mM DTT.
The reaction mixture (10 μl total volume) was incubated for 3 hours at room temperature (RT, ca. 25° C.), before the reaction was terminated by addition of 10 μl ADP-Glo reagent. The mixture was further incubated for 60 minutes at RT before addition of 20 μl Kinase detection reagent from the ADP-Glo assay kit. Luminescence signal was measure on a BMG Labtech Pherastar FSX multimode microplate reader. The signal integration time was 0.5 s.
Test compound potency (Ki,app) was estimated by nonlinear regression using the tight-binding fit model in GeneData Screener (GeneData AG). In cases where the Ki,app could not be determined, the % inhibition at the highest tested concentration is reported. The tight-binding fit model is given by euquation (2). […] Ki,app is the apparent dissociation constant of the inhibitor. The IC50 can be calculated as given by equation (3). Equation (3): IC50=Ki,app+[E]/2 (3) IC50 estimates were obtained from independent experiment and the logarithmic average was calculated.

[6] = molecular target: LRRK2 G2019S (Homo sapiens (Human), UniProt Q5S007, G2019S); assay: LRRK2 G2019S LanthaScreen TR-FRET kinase activity assay; format: biochemical; settings: 250 pM kinase, 1.3 mM ATP, n≥2 tests
LRRK2 G2019S, sequence (Q5S007 970-2527 G2019S): as the sequence (Q5S007 970-2527) above, with G1050S counted along it
Protocol: as §1, §2, §3, §4, §5

[7] = Fraction unbound in rat plasma and brain homogenate by equilibrium dialysis; format: in vitro ADME, male Sprague-Dawley rat; settings: 1 μM, equilibrium dialysis 5 h at 37° C.; for fubrain (% free): rat brain homogenate; for fuplasma (% free): rat plasma
Protocol: The fraction of unbound compound in male Sprague-Dawley rat plasma (fuplasma) and brain homogenate (fubrain) were determined by equilibrium dialysis using 96-well HTD-dialysis plates with dialysis membranes (molecular weight cut off 12-14 KDa). One side of the HTD-dialysis plate was loaded with matrix (plasma or brain homogenate) and the other side with buffer (100 mM sodium phosphate buffer, pH 7.4). Test compounds were dissolved in DMSO then spiked (5 μL of 0.2 mM) into blank (995 μL) plasma or diluted brain homogenate (1:4 ratio in phosphate buffer) giving a final nominal concentration 1 μM (≤0.5% DMSO). The matrices were loaded into respective chambers and equilibrated against phosphate buffer for 5 h at 37° C. (in a humidified air incubator with 5% CO2 with shaking). Samples from both chambers (buffer and plasma or brain homogenate) were aliquoted to fresh 96-well polypropylene plates then matrix matched using an equal volume of opposite blank matrix before extraction with cold solvent (3 volumes acetonitrile) containing an appropriate bioanalytical internal standard. After centrifugation (20 min, 3200 g, 4° C.) the supernatants were diluted with appropriate volumes of water and compound concentrations were quantified by LC/MS-MS against matrix matched calibration standards. The fuplasma and fubrain were calculated according to equation 4 below.
[formula] Where [F] is the compound concentration on the buffer (receiver) side of the membrane; [T] is the compound concentration on the plasma or brain (donor) side of the membrane; D is the matrix dilution factor which is determined as D=4 for brain matrix and D=1 for plasma matrix in these assays.

[8] = brain, n=3, read-out: Total brain concentration
[9] = plasma, n=3, read-out: Total plasma concentration

CLint scaled at 0.05 μM [1]	SMILES	CLint scaled at 1 μM [2]	Kp at 1 h ([3]; brain)	Kp uu at 1 h ([3]; brain)	concentration at 1 h [3, 8]	concentration at 1 h [3, 9]	IC50 [4]	IC50 [5]	IC50 [6]	fubrain (% free) [7]	fuplasma (% free) [7]	Rate of metabolism classification (liver microsomal CLint) ([2]; based on liver microsomal CLint values of Table 6)
16.2 mL/min/kg	[2H]C([2H])([2H])Oc1ncc(F)cc1-n1nc2c(c1C)Nc1ncc3c(Cl)nn(c3n1)CCCO2 (single isomer, unassigned) [Example 23, 8-Chloro-2-(5-fluoro-2-(methoxy-d3)pyridin-3-yl)-3-methyl-2,4,12,13-tetrahydro-11H-5,7-(azenometheno)dipyrazolo[3,4-b:5′,1′-g][1]oxa[4,6,8]triazacycloundecine]	23.8 mL/min/kg										
	CCc1c2c(nn1-c1cccnc1OC)OCCCn1nc(Cl)c3cnc(nc31)N2 [Example 5, 8-Chloro-3-ethyl-2-(2-methoxypyridin-3-yl)-2,4,12,13-tetrahydro-11H-5,7-(azenometheno)dipyrazolo[3,4-b:5′,1′-g][1]oxa[4,6,8]triazacycloundecine]	23.2 mL/min/kg	1.9 ± 0.3	0.8 ± 0.13	7 ± 3 ng/g	4 ± 0.8 ng/mL	4 nM	0.41 nM	1.4 nM	5.2 % free	12.3 % free	
	CCc1c2c(nn1-c1cccnc1C)OCCCn1nc(Cl)c3cnc(nc31)N2 [Example 8, 8-Chloro-3-ethyl-2-(2-methylpyridin-3-yl)-2,4,12,13-tetrahydro-11H-5,7-(azenometheno)dipyrazolo[3,4-b:5′,1′-g][1]oxa[4,6,8]triazacycloundecine]	16.8 mL/min/kg	0.9 ± 0.1	0.37 ± 0.03	279 ± 10 ng/g	297 ± 29 ng/mL	35 nM	2.5 nM	12 nM	7.5 % free	19.3 % free	
	Cc1c2c(nn1-c1cccnc1OC1CC1)OCCCn1nc(Cl)c3cnc(nc31)N2 [Example 16, 8-Chloro-2-(2-cyclopropoxypyridin-3-yl)-3-methyl-2,4,12,13-tetrahydro-11H-5,7-(azenometheno)dipyrazolo[3,4-b:5′,1′-g][1]oxa[4,6,8]triazacycloundecine]	18.7 mL/min/kg	1.3 ± 0.2	0.32 ± 0.06	141 ± 30 ng/g	112 ± 18 ng/mL	2.1 nM	0.57 nM	0.93 nM	3.5 % free	13.9 % free	
	Cc1c2c(nn1-c1cccnc1OCF)OCCCn1nc(Cl)c3cnc(nc31)N2 [Example 18, 8-Chloro-2-(2-(fluoromethoxy)pyridin-3-yl)-3-methyl-2,4,12,13-tetrahydro-11H-5,7-(azenometheno)dipyrazolo[3,4-b:5′,1′-g][1]oxa[4,6,8]triazacycloundecine]	11.2 mL/min/kg	2.8 ± 0.6	1.04 ± 0.21	343 ± 54 ng/g	122 ± 11 ng/mL	0.67 nM	0.44 nM	0.49 nM	4.7 % free	12.8 % free	
	Cc1c2c(nn1-c1cccnc1OC(F)F)OCCCn1nc(Cl)c3cnc(nc31)N2 [Example 19, 8-Chloro-2-(2-(difluoromethoxy)pyridin-3-yl)-3-methyl-2,4,12,13-tetrahydro-11H-5,7-(azenometheno)dipyrazolo[3,4-b:5′,1′-g][1]oxa[4,6,8]triazacycloundecine]	33.8 mL/min/kg	2.8 ± 0.5	0.87 ± 0.17	48 ± 11 ng/g	19 ± 8 ng/mL	1.1 nM	0.32 nM	0.35 nM	2.7 % free	8.6 % free	moderate to high rate of metabolism
